Assay [1] has as its system D. citri. Put plainly: Y-tube olfactometer test. In kind it is in vivo, Diaphorina citri. The procedure:
In order to confirm the repellent effect of synthetic DMDS against D. citri, an additional study using a Y-tube olfactometer (ARS, Gainesville, Fla., USA) was conducted. The Y-tube consisted of a central stem (13.5 cm long, 2.4 cm o.d.) with two lateral arms (5.75 cm long, 2.4 cm o.d.). The lateral arms were connected to extending glass tubes (14.5 cm long, 1.9 cm o.d.) with inlayed sieves (5.25 cm away from connection) to prevent insect escape and serve as an end point of the lateral arms. Charcoal-filtered laboratory air was passed from an air pump, into each of the extending arms of the olfactometer at a rate 100 mL/min. […]
Adult psyllids that oriented to any of the four arms of the olfactometer were categorized as attracted and those that remained in the olfactometer's central orifice (release point) until the 1.5 h experimental period elapsed as repelled. […] Subsequently, data obtained for D. citri orientation to the four arms (two volatile sources and two laboratory air) was analyzed for each treatment using one-way step-wise ANOVA followed by Tukey's HSD test (P<0.05, SAS Institute Inc., 2003). The data obtained from the Y-tube olfactometer bioassays was analyzed using Chi-square (χ^2) analyses (Parker, 1979) to compare between the numbers of attracted versus repelled D. citri (P<0.05).

The subject of assay [2] is D. citri. Put plainly: 4-choice olfactometer behavioral bioassay. It is filed as in vivo, Diaphorina citri. The conditions noted are these: for t (percentages of repelled versus attracted D. citri, student's t-test): laboratory air, 1.5 h. As for the experimental part: Adult D. citri used for the behavioral bioassays were drawn from a continuously reared culture at the University of Florida Citrus Research and Education Center (Lake Alfred, USA) and established in 2000 from field populations in Polk Co., FL, USA (28.0′N, 81.9′W) prior to the discovery of citrus greening disease in FL. This culture is maintained on sour orange (Citrus aurantium L.) and ‘Hamlin’ orange [C. sinensis (L.)] seedlings at 27±1° C., 63±2% RH, and L14:D10 photoperiod. Freshly emerged unsexed adult psyllids were first placed on citrus seedlings in Plexiglass cages for up to 7 d for sexual maturation prior to use in experiments.
Husbandry methods for the ‘white’ guava and ‘Hamlin’ citrus plants used in these investigations have been described previously (Rouseff et al., 2008). ‘Hamlin’ citrus was selected for analysis because it is one of the most highly cultivated citrus varieties in Florida. Half of the samples were gently crushed (using a clean glass rod) to simulate plant damage and the remaining half were not crushed. All samples ([…] leaf flush/sample) were wrapped in Kim wipes (Kimberly-Clark®, Ontario, Canada) and placed in 2.5 cm×12.5 cm extending glass tubes of a 4-choice olfactometer [Analytical Research Systems, ARS (Gainesville, Fla.)], for behavioral investigations described below.
Behavioral responses of D. citri to citrus volatiles with or without guava or DMDS volatiles were quantified using a 4-choice olfactometer (Analytical Research Systems, Inc. (ARS), Gainesville, Fla., USA) based on the design of Pettersson (1970), Vet et al. (1983) and Kalule & Wright (2004). The olfactometer consists of a 5 cm×30 cm×30 cm stage on four 2.5 cm×15 cm legs with extending orifices on four sides of the stage. Charcoal-purified and humidified air was drawn through these arms via a vacuum pump creating four potential odor fields. Air pulled through the olfactometer was evacuated through a central orifice on the floor of the stage. During each experimental run, two of the four orifices on the sides of the stage were designated for odor stimuli treatments and the two others were left as blank. […] The effect of repellent chemicals was measured by adding guava leaves or a formulation of synthetic DMDS to citrus flush in two arms of the olfactometer as described below. […]
The behavioral response of adult D. citri to clean laboratory air was first investigated to 4 blank arms of the olfactometer as a negative control to ensure no positional bias. Thereafter, D. citri response was measured to citrus leaf volatiles with and without volatiles from guava leaves or synthetic DMDS. […]

Assay [3] relates to Mediterranean fruit fly, Ceratitis capitata. The conditions noted are these: literature reference 23; cited from earlier work.

Turning to `CSSC` [DMDS, dimethyl disulfide], in assay [1] (Y-tube first experiment: 100 μL DMDS solution in mineral oil plus ~3.5 g citrus flush in both arms versus citrus alone, χ2=2.57, P=0.109), the “effect on D. citri's response to citrus flush volatiles” value is recorded as “significantly inhibited”. In addition, the “percentage of D. citri choosing the arm releasing clean air versus DMDS” value in assay [1] (Y-tube second experiment: DMDS in mineral oil in one arm, clean laboratory air in the other, 300 s, χ2=5.0, P=0.025) is roughly 75%. Besides, in assay [2] (100 μL of a 4.3 μg/μL (w/v) solution in mineral oil on cotton wick, compared with lower dosages on a log scale (data not shown)), the “repellence of adult D. citri at the selected dosage (preliminary investigation)” value is “optimally repel”. The “t (percentages of repelled versus attracted D. citri, student's t-test)” value in assay [2] (Experiment 2: arms laboratory air, intact citrus, DMDS, 100 μL of 4.3 μg/μL DMDS in mineral oil) was 3.05; in assay [2] (Experiment 3: arms laboratory air, crushed citrus, DMDS), 7.23; in assay [2] (Experiment 4: arms laboratory air, mineral oil, DMDS (DMDS only)), 6.25.

Take `CC1=CC[C@H]2[C@H]3[C@@H]1[C@]2(C)CC[C@H]3C(C)C` [α-Copaene]: the “reported behavioural effect on Mediterranean fruit fly” value in assay [3] is “attractant”.

Source of the values: patent US8372443B2, “Methods and compositions for the treatment and prevention of citrus greening disease” (priority 2008, dated 2013).
